{"source": "ChEMBL document CHEMBL1149701", "about": "“Aaptamines as sortase A inhibitors from the tropical sponge Aaptos aaptos” (Bioorg Med Chem Lett, 2007)", "key": {"Sortase A": {"molecular_target": "T1, Sortase A (Staphylococcus aureus, UniProt Q9S446)", "T1 sequence (Q9S446 whole entry)": "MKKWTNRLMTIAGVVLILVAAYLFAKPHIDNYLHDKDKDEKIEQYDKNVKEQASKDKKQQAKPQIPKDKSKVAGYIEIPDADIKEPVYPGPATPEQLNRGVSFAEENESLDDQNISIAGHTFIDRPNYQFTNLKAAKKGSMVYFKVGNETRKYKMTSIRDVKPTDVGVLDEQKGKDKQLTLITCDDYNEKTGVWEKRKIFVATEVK", "assay": "Inhibition of SrtA"}, "Staphylococcus aureus [1]": {"test_system": "Staphylococcus aureus", "assay": "Antimicrobial activity against Staphylococcus aureus Newman", "format": "functional"}, "Staphylococcus aureus [2]": {"test_system": "Staphylococcus aureus", "assay": "Inhibition of Staphylococcus aureus Newman adhesion to fibronectin", "format": "functional, organism-based"}, "Staphylococcus aureus [3]": {"test_system": "Staphylococcus aureus", "assay": "Inhibition of Staphylococcus aureus SKM12 adhesion to fibronectin in relative to wild type", "format": "functional", "design": "scale not given: the % may be the effect or the level left"}}}
{"molecule": "COc1cc2ccnc3c2c(c1OC)NC=C3", "note": "[AAPTAMINE]", "values": [{"measurement": "IC50", "setting": "Sortase A", "value": 103, "unit": "µM"}, {"measurement": "MIC", "setting": "Staphylococcus aureus [1]", "value": "> 200", "unit": "µg/mL"}]}
{"molecule": "COc1ccc2cc3[n+](cc2c1OC)CCc1cc2c(cc1-3)OCO2.[Cl-]", "note": "[BERBERINE CHLORIDE]", "values": [{"measurement": "IC50", "setting": "Sortase A", "value": 23.4, "unit": "µM"}, {"measurement": "MIC", "setting": "Staphylococcus aureus [1]", "value": 100, "unit": "µg/mL"}]}
{"molecule": "COc1cc2ccnc3c2c(c1O)N(C)C=C3", "note": "[ISOAAPTAMINE]", "values": [{"measurement": "IC50", "setting": "Sortase A", "value": 16.2, "unit": "µM"}, {"measurement": "MIC", "setting": "Staphylococcus aureus [1]", "value": 50, "unit": "µg/mL"}, {"measurement": "Activity", "setting": "Staphylococcus aureus [2]", "value": "Dose-dependent effect"}, {"measurement": "Activity", "setting": "Staphylococcus aureus [3]", "value": 99, "unit": "%"}]}
{"molecule": "COC1=Cc2ccnc3ccnc(c23)C1=O", "note": "[DEMETHYLOXY-AAPTAMINE]", "values": [{"measurement": "IC50", "setting": "Sortase A", "value": 94.7, "unit": "µM"}, {"measurement": "MIC", "setting": "Staphylococcus aureus [1]", "value": 25, "unit": "µg/mL"}]}
{"molecule": "Oc1cc2ccnc3c2c(c1O)NC=C3", "note": "[DEMETHYLAAPTAMINE]", "values": [{"measurement": "IC50", "setting": "Sortase A", "value": 85.9, "unit": "µM"}, {"measurement": "MIC", "setting": "Staphylococcus aureus [1]", "value": 25, "unit": "µg/mL"}]}
